Measured values published in patent publication US11596691B2, “Photoswitchable HDAC inhibitors” (The General Hospital Corporation, priority 2013, dated 2023).
Entries after “also recorded” stand apart in the source; their conditions may differ.

What was measured:
[1] = Absorbance spectra; type: physicochemical
Description: Compounds were profiled physically to determine absorbance spectra, solubility and kinetics of photo-isomerization kinetics and thermal relaxation (where applicable). The compounds were then profiled biochemically to determine the HDAC inhibitory profile as a function of light exposure. Finally, selected compounds were profiled in cellular assays for the ability to induce hyperacetylation of histone proteins, which represents a biomarker readout for HDAC inhibition.
Compounds studied include those analogs with a push-pull azobenzene system (BG14, BG18, BG47, BG48 and BG49).
Physical characterization of the prototype inhibitors in PBS confirmed that all compounds strongly absorb light in the blue spectrum with maximum absorbance around 470 nm.

[2] = system: MCF7 cells; assay: L1000 gene expression profiling / GSEA in MCF7 cells; type: cell-based
Protocol: In order to gain more quantitative insights into the specific genes regulated by the presented inhibitors, and to provide further evidence that the BG inhibitors elicit biological responses similar to the closely related, but light-independent HDAC inhibitors a high-throughput gene expression analysis was performed. Expression profiling was performed in quadruplicate using the L1000™ platform (Genometry, Inc.). Specifically MCF7 cells were treated with various compounds and the transcriptional changes were measured as a function of compound concentration, light exposure intensity, and treatment duration relative to the reference HDAC inhibitors CI994 and “Merck60”.
To assess BG14's nature as an HDAC inhibitor beyond its ability to modulate HDAC and histone acetylation levels, Gene Set Enrichment Analysis (GSEA) was performed between BG14 (max concentration, max amount of light) and the known HDAC inhibitor CI-994 (the same concentration) (FIG. 15D). Very remarkably, the Normalized Enrichment Score (NES) of 3.25 indicates a very high degree of similarity between both expression profiles. The identified 177 On-Target Gene List, (landmark genes regulated by light-dependent BG14_trans only), as well as the 68 Off-Target list (landmark genes regulated in absence of light by BG14_cis) were compared to the list of genes regulated by CI-994. […]

[3] = system: acetylation of histone H3 Lysine 9 (H3K9Ac) in MCF7 cells; assay: H3K9Ac pharmacodynamic marker in MCF7 cells; type: cell-based; conditions: for histone acetylation above background: in the absence of light; for acetylation of H3K9 relative to vehicle control: in the presence of light
Description: BG14, BG47 and BG48 were profiled in cell culture to assess cellular activity using acetylation of histone H3 Lysine 9 (H3K9Ac) as a pharmacodynamic marker for HDAC inhibition. […] H3K9 acetylation levels directly correlated with light exposure.

[4] = biological target: T1, HDAC3 (Homo sapiens, UniProt O15379); assay: Light-dependent HDAC3 biochemical assay (acetyl-lysine tripeptide based on acH4K12); conditions: for inhibition of HDAC3 enzymatic activity: in the presence and absence of light
T1 construct: 40 μL of a stock solution of full-length HDAC protein at three times the desired final concentration
Protocol: (§1) Compounds were added to white 96-well plates containing 40 μL of HDAC assay buffer (50 mM HEPES, 100 mM KCl, 0.05% BSA, 0.001% Tween-20 at pH 7.4) by pin transfer. To the assay plate was added 40 μL of a stock solution of full-length HDAC protein at three times the desired final concentration. After addition the plate was centrifuged to mix the solution while removing air bubbles. […] After which, reads were taken every 15 minutes to follow the fluorogenic release of 7-amino-4-methylcoumarin from the substrate resulting from deacetylase and trypsin enzymatic activity. In between reads the LED excitation device was reaffixed on top of the plate ensuring maximum cis-isomer population. In parallel to this, a second plate was prepared identically and measured for activity but this plate was not excited by our device but rather was covered to prevent any ambient light from shining on the plate. Replicate pairs of plates were performed.

[5] = system: HDAC enzyme; assay: HDAC inhibitory activity as a function of light exposure time; type: biochemical; conditions: continuous 470 nm light, measured in 15 min intervals
Protocol: The activation of the photoswitchable inhibitors depends on the light energy and the exposure time (as predicted by our model). […] Following pre-incubation of the HDAC enzyme and respective small molecule inhibitor, the enzyme substrate was added and the assay plate was continuously exposed to light (470 nm). Inhibitory activities were measured in 15 min intervals.

[6] = system: HDAC1-3; assay: HDAC IC50 assay with and without 470 nm light exposure; type: biochemical; conditions: for change of inhibitory activity against HDAC1-3 on light exposure: with vs without exposure (including 1 hr pre-exposure) to 470 nm light
Protocol: as §1
The LED arrays were connected to a micro controller that was programmed to control individual LEDs, LED rows, or LED columns within the array. The controller allowed for modulation of LED intensity by controlling the on/off timing (PWM) or by directly controlling the supplied voltage. The temporal control was <10 ms. The LEDs and microcontroller were powered optionally by a power supply unit connected to a standard 110 V outlet or by a battery-pack, which allowed for use in a cell culture incubator. The LED array was used as lid to illuminate plates from the top and as a stage to illuminate the plates from the bottom, as required by the experimental setup.

[7] = biological target: T2, HDAC1 (Homo sapiens, UniProt Q13547); assay: Half-life experiment (residence time on HDAC1 after light exposure); type: biochemical; conditions: 520 nM, 1 hour 470 nm light, then dark 4, 8 and 17 hours; estimated
T2 construct: 40 μL of a stock solution of full-length HDAC protein at three times the desired final concentration
Protocol: To directly compare the residence time versus isoform relaxation time BG47 and BG48 were incubated with HDAC1 in alternating columns of a white 96-well plate. Columns 1 and 2 were exposed to 470 nm light (22.9V/0.2 A; 0.1 A per column) from LEDs using our excitation device 17 hours before the assay for 1 hour, resulting in 16 hours of relaxation time before the assay. Columns 3 and 4 were exposed to light 9 hours before the assay for 1 hour providing an 8 hour relaxation period and columns 5 and 6 were exposed 5 hours before the assay providing a 4 hour relaxation time point while columns 11 and 12 were used as controls with no pre-exposure. After the completion of the pre-exposure and relaxation time points a stock solution of trypsin and substrate was added to the plate. The plate was centrifuged and read using a Tecan Safire II every 2 minutes while keeping the plate inside the instrument, eliminating exposure to ambient light.
Both compounds were incubated at 520 nM with HDAC1, exposed for 1 hour of […] light and stored in the dark for 4, 8 and 17 hours, respectively, followed by addition of enzyme substrate. The activity was monitored in reference to unexposed compound with continuous readout measured over 2 hours, estimating a residence half-live of 12-24 hours.

[8] = system: acetylation of histone H3 Lysine 9; assay: Acetylation of histone H3 Lysine 9 in live cells (biomarker for HDAC inhibition); type: cell-based; conditions: immunofluorescent staining, with/without light
Description: The activity of the compounds in live cells was validated using acetylation of histone H3 Lysine 9 as a biomarker for HDAC inhibition.

[9] = Thermal relaxation (cis-to-trans) half-life measurement; conditions: aqueous vs chloroform

T1 sequence (O15379 whole entry): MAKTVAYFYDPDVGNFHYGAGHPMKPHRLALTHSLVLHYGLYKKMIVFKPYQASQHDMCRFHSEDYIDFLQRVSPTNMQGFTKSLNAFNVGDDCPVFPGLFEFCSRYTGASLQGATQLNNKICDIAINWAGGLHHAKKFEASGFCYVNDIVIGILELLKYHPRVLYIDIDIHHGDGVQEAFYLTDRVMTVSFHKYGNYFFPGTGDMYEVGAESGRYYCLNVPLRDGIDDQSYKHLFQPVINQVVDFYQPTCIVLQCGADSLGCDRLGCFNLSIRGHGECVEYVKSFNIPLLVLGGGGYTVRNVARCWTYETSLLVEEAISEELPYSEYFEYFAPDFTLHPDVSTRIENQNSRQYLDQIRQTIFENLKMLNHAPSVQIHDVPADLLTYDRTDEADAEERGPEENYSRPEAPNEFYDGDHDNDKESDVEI
T1 sequence (Q9Y618 395-489 partner limits assumed): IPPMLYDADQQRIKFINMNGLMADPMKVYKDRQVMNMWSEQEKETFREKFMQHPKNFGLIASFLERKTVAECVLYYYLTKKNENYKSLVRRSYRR
T2 sequence (Q13547 whole entry): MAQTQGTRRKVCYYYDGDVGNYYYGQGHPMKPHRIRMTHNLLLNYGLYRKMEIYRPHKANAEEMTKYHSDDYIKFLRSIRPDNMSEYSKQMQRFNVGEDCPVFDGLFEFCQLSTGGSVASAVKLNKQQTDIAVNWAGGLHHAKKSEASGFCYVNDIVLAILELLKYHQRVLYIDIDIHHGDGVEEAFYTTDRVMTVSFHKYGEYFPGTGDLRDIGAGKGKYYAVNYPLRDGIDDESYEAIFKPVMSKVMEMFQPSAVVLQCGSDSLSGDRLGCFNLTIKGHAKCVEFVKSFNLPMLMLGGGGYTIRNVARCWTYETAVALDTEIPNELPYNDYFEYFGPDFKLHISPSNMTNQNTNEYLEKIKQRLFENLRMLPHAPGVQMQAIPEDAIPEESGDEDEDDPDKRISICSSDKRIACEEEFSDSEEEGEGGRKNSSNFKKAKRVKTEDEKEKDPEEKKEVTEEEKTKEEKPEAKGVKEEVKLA

For Nc1ccccc1NC(=O)c1ccc(N=Nc2ccccc2)cc1 [BG12, N-(2-aminophenyl)-4-(phenyldiazenyl)benzamide], the absorbance range [1] was “maximally absorbs in the UV range”.
For CN(C)c1ccc(N=Nc2ccc(C(=O)Nc3ccccc3N)cc2)cc1 [BG14, N-(2-aminophenyl)-4-((4-(dimethylamino)phenyl)diazenyl)benzamide], the “transcript levels of L1000 landmark genes” value ([2]; MCF7, absence of light) was “did not show any significant changes in transcript levels”, the “expression levels of landmark genes” value ([2]; MCF7, increasing amounts of light) was “significant changes of expression levels of specific landmark genes” and the “histone acetylation above background” value [3] was “No significant histone acetylation above background”. For the same compound, the “acetylation of H3K9 relative to vehicle control” value [3] was “strongly induced acetylation of H3K9”, the “increase of H3K9 acetylation compared among the inhibitors” value ([3]; with light) was “strongest increase of H3K9 acetylation” and the absorbance range [1] was “absorbed in the blue range of the visible spectrum”. The “inhibition of HDAC3 enzymatic activity” value [4] was “potent light-dependent inhibitory activity; also recorded: also inhibits HDAC3”, the “dependence of HDAC3 inhibitory activity on light exposure” value ([4]; varying average light exposure) was “directly proportional to the average light exposure” and the “activity change as a function of light exposure time” value (shortened to “activity change as a function”) [5] was “increased activity with increased exposure time”. The “change of inhibitory activity against HDAC1-3 on light exposure” value (“change of inhibitory activity” for short) [6] was “Significantly increased activity”.
With CN(C)c1ccc(N=Nc2ccc(C(=O)Nc3ccccc3O)cc2)cc1 [BG18, 4-((4-(dimethylamino)phenyl)diazenyl)-N-(2-hydroxyphenyl)benzamides] the absorbance range [1] was “absorbed in the blue range of the visible spectrum” and the “change of inhibitory activity” value [6] was “Significantly increased activity”.
In the case of Nc1ccccc1NC(=O)c1ccc(N=Nc2ccc(C(=O)O)cc2)cc1 [BG19, 4-((4-((2-aminophenyl)carbamoyl)phenyl)diazenyl)benzoic Acid], the absorbance range [1] is reported as “maximally absorbs in the UV range”.
With CN(C)c1ccc(N=Nc2ccc(C(=O)Nc3cc(-c4cccs4)ccc3N)cc2)cc1 [BG47, N-(2-amino-5-(thiophen-2-yl)phenyl)-4-((4-(dimethylamino)phenyl)diazenyl)benzamide] the “histone acetylation above background” value [3] was “No significant histone acetylation above background”, the “acetylation of H3K9 relative to vehicle control” value [3] was “strongly induced acetylation of H3K9” and the absorbance range [1] was “absorbed in the blue range of the visible spectrum”. For the same compound, the “inhibition of HDAC3 enzymatic activity” value [4] was “did not inhibit HDAC3 in the presence and absence of light”, the residence time [7] was 720 to 1440 min and the HDAC isoform selectivity [6] was “HDAC1/2-selective”. For the same compound, the “change of inhibitory activity” value [6] was “Significantly increased activity”.
With CN(C)c1ccc(N=Nc2ccc(C(=O)Nc3cc(-c4ccccc4)ccc3N)cc2)cc1 [BG48, N-(4-amino-[1,1′-biphenyl]-3-yl)-4-((4-(dimethylamino)phenyl)diazenyl)benzamide] the “histone acetylation above background” value [3] was “No significant histone acetylation above background”, the “acetylation of H3K9 relative to vehicle control” value [3] was “strongly induced acetylation of H3K9” and the absorbance range [1] was “absorbed in the blue range of the visible spectrum”. For the same compound, the “inhibition of HDAC3 enzymatic activity” value [4] was “did not inhibit HDAC3 in the presence and absence of light”, the residence time [7] was 720 to 1440 min and the HDAC isoform selectivity [6] was “HDAC1/2-selective”. For the same compound, the “change of inhibitory activity” value [6] was “Significantly increased activity”.
In the case of CN(C)c1ccc(N=Nc2ccc(C(=O)Nc3ccccc3O)cc2)cc1 [BG49, 4-((4-(dimethylamino)phenyl)diazenyl)-N-(2-hydroxyphenyl)benzamides], the “hyperacetylation of H3K9 relative to DMSO control” value [8] is reported as “statistically significant induced hyperacetylation of H3K9 relative to DMSO control was observed only following light exposure” and the “inhibition of HDAC3 enzymatic activity” value [4] is reported as “not targeted”.
For CC(=O)Nc1ccc(C(=O)Nc2ccccc2N)cc1 [CI-994, reference compound], the “inhibition of HDAC3 enzymatic activity” value [4] was “no differential activity” and the “change of inhibitory activity” value [6] was “no differential activity”.
With CN(C)c1ccc(N=Nc2ccc(C(=O)O)cc2)cc1 [DABCYL] the “thermal relaxation faster than previous measurements in chloroform” value [9] was “approximately 120 ×”.
For Nc1ccccc1NC(=O)c1ccc(CNC(=O)OCc2cccnc2)cc1 [MS-275], the “activity change as a function” value [5] was “Only compound BG14 shows increased activity with increased exposure time”.
In the case of O=C(CCCCCCC(=O)Nc1ccccc1)NO [SAHA], the “activity change as a function” value [5] is reported as “Only compound BG14 shows increased activity with increased exposure time”.
